From patent publication US8815872B2, “Macrocyclics pyrimidines as aurora kinase inhibitors” (Merck Patent GmbH, priority 2008, dated 2014)

Conditions: from C=CCOc1cccc(Nc2ncc(F)c(N[C@H]3[C@@H](C(N)=O)[C@@H]4C=C[C@H]3C4)n2)c1; rcm bond; Grubbs 2nd generation; dichloromethane; 19.2 mM; 40.0 °C; 3.0 h

C=C[C@@H]1C[C@@H]2/C=C/COc3cccc(c3)Nc3ncc(F)c(n3)N[C@H]2[C@H]1C(N)=O (single isomer, unassigned) [Example 3]
ring closure, yield of all isomers: 15%
